US20200085814A1, “COMBINATION OF CERTINIB WITH AN EGFR INHIBITOR” (Novartis AG, priority 2014, published 2020)
“Also recorded” adds a separate entry of the source. Where two headings read alike, the source gives them in different places.

What was measured:
[1] = tested on: NCI-H2228 cells; assay: Secretome screening, CellTiter-Glo cell proliferation in presence of ceritinib; type: cell-based; conditions: 0.5 μM ceritinib, conditioned supernatant, 96 hours
Description: NCI-H2228 was obtained from ATCC. The cell lines harbored EML4-ALK rearrangements. NCI-H2228 cells were cultured in RPMI-1640 (ATCC Catalog #30-2001) supplemented with 15% FBS.
Secretome screening was performed as described previously (Lito P, Pratilas C A, et al. Cancer Cell 2012; 22: 668-82). In brief, 317 cDNA constructs that represent 220 unique secreted proteins were reverse transfected into HEK293T cells individually and incubated 4 days to allow accumulation of secreted proteins in supernatant. The supernatant was transferred to the assay cells, namely NCI-H2228 cells, followed by addition of ceritinib to a final concentration of 0.5 μM. Cell proliferation was measured using CellTiter-Glo after 96 hours. Cells treated with DMSO in the absence of conditioned media and with ceritinib alone were used as controls.
The Cell Titer Glo assay was done with H2228 cell line. The cell line stems from adenocarcinoma; non-small cell lung cancer. Cell Titer Glo assay is a Cell Viability Assay that determined the number of viable cells in culture based on quantitation of the ATP present, which signaled the presence of metabolically active cells.
“Ceritinib no ligand” represents cells that were treated with ceritinib only (absence of any ligand) and represents the impact of ceritinib on cell viability. […]

[2] = tested on: MGH049 cells; assay: Cell proliferation assay (CellTiter-Glo), ceritinib dose response; type: cell-based; conditions: 144 h; 0.3 μM ceritinib, 6 days, MGH049, relative to median DMSO signal; read-out: percent inhibition of cell proliferation
Description: (§1) MGH049 and MGH051 were obtained from Massachusetts General Hospital (Friboulet L, Li N, et al. Cancer Discovery 2014; 4: 662-73). These cell lines harbor EML4-ALK rearrangements. MGH049 and MGH051 were cultured in DMEM (ATCC Catalog #30-2002) supplemented with 10% FBS.
(§2) To determine the dose-response relationship between the dose of ceritinib and the magnitude of its effect on cell proliferation, 1K MGH049 and 4K MGH051 cells were plated in each well of 384 well-plates, and grown for 24 hours prior to treatment. Cells were then treated with DMSO or ceritinib at concentrations ranging from 4 nM to 1 μM (3-fold dilutions). After 6 days, cell proliferation was measured using the CellTiter-Glo luminescent cell viability assay. Percent inhibition was calculated relative to median DMSO signal.

[3] = tested on: MGH051 cells; assay: as above; type: cell-based; conditions: 144 h; 0.3 μM ceritinib, 6 days, MGH051, relative to median DMSO signal; read-out: percent inhibition of cell proliferation
Description: as §1, §2

[4] = tested on: MGH049 cells; assay: Cell proliferation (CellTiter-Glo), EGFR inhibitors with or without ceritinib; type: cell-based
Description: (§3) These cell lines harbor EML4-ALK rearrangements.
(§4) Three replicate plates were set up for each cell line and drug compound, with or without ceritinib. A representative dose response curve was then calculated by taking the mean across the 3 replicates with and without ceritinib. Proliferation inhibition values were normalized to the measured inhibition value at zero dose of the compound, with and without ceritinib.
(§5) Experiments performed with cell lines MGH049 and MGH051 are depicted on FIG. 3 and FIG. 4, respectively.

[5] = tested on: HER3 phosphorylation in ALK positive NSCLC cell lines; assay: Western blotting of whole cell lysates after short-term and long-term ceritinib treatment; type: cell-based; conditions: long-term treatment, 4 ALK positive cell lines (FIG. 5)
Description: FIG. 5. […] Cells were harvested after short-term and long-term ceritinib (LDK378) treatment, and whole cell lysates were analyzed by Western blotting.
(§6) The activated states of ALK and HER3 of multiple NSCLC cell lines that harbor EML4-ALK translocations were assessed in both short-term and long-term cultures.

[6] = tested on: AKT phosphorylation in MGH051 cells; assay: Western blotting, MGH051 cells, ceritinib 4 hours or 8 days, inhibitors added for last day; type: cell-based; conditions: MGH051 (FIG. 6); for rebound in AKT phosphorylation: added for the last day of long-term (8 days) ceritinib treatment
Description: (§7) FIG. 6. […] MGH051 cells were treated with ceritinib (LDK378) for 4 hours or 8 days.
as §6

[7] = tested on: MGH049 cells; assay: Cell colony formation assay, crystal violet; type: cell-based; conditions: MGH049, 7 days; for cell growth inhibition as single agent (colony formation): ceritinib 0.5 μM or erlotinib 1 μM (FIG. 7); for anti-proliferative effect in combination with ceritinib versus ceritinib alone (colony formation): ceritinib 0.5 μM + erlotinib 1 μM (FIG. 7)
Source text: (§8) FIGS. 7A and 7B. […] For each cell line, all dishes were fixed, stained and photographed at the same time.

[8] = tested on: MGH051 cells; assay: Cell colony formation assay, crystal violet; type: cell-based; conditions: MGH051, 7 days; for cell growth inhibition as single agent (colony formation): ceritinib 0.5 μM or erlotinib 1 μM (FIG. 7); for anti-proliferative effect in combination with ceritinib versus ceritinib alone (colony formation): ceritinib 0.5 μM + erlotinib 1 μM (FIG. 7)
Source text: as §8

[9] = tested on: ERK phosphorylation in MGH051 cells; assay: Western blotting, MGH051 cells, inhibitors added for last day of long-term ceritinib treatment; type: cell-based; conditions: added for the last day of long-term (8 days) ceritinib treatment, MGH051 (FIG. 6)
Description: as §7, §6

[10] = tested on: MGH051 cells
Description: as §3, §4, §5

[11] = tested on: HER3 activation in MGH051 cells; assay: Western blotting, MGH051 cells, inhibitors added for last day of long-term ceritinib treatment; type: cell-based; conditions: added for the last day of long-term (8 days) ceritinib treatment, MGH051 (FIG. 6)
Description: FIG. 6. Addition of HER3 and EGFR inhibitors represses the rebound in AKT phosphorylation. MGH051 cells were treated with ceritinib (LDK378) for 4 hours or 8 days.
The activated states of ALK and HER3 of multiple NSCLC cell lines that harbor EML4-ALK translocations were assessed in both short-term and long-term cultures. […] In addition, the levels of pHER3 correlated with the duration of the treatments (FIG. 5). Next, we assessed the activation of the downstream signaling of HER3 and the repression of ceritinib-induced HER3 activation using various inhibitors.

[12] = tested on: H2228 tumors; assay: H2228 NSCLC xenograft efficacy; type: in vivo, female SCID-beige mice
Description: In this experiment female SCID Beige mice bearing H2228 tumors were used. At start, the mice were 8 to 12 weeks of age. First, the mice were inoculated with 4 mm^3 H2228 tumor fragments by subcutaneous injection in flank. The fragments were dipped in Matrigel before implanting. When tumors reached an average size of 100-150 mm^3 the treatment according to the scheme below commenced. The body weight was measured daily for the first 5 days and then biweekly until end. The tumor was measured biweekly by caliper until end. […] Dosing with the compounds ended on study day 32. After this the tumor size was monitored during an observation phase for re-growth.
The average tumor volume data in the graphs is not complete through the end of the study for all groups. Once a group lost more than 50% of the animals due to death or ethical sacrifice, the average tumor volume for the remaining animals in these groups was no longer graphed.

## Cc1cc(Nc2ncc(Cl)c(Nc3ccccc3S(=O)(=O)C(C)C)n2)c(OC(C)C)cc1C1CCNCC1 [ceritinib, 5-chloro-N^2-(2-isopropoxy-5-methyl-4-(piperidin-4-yl)phenyl)-N^4-[2-(propane-2-sulfonyl)-phenyl]-pyrimidine-2,4-diamine]
[1]
  reversal of growth inhibitory effect of ceritinib by secreted ligands (cell viability): Ligands for EGFR and ERBB3 clearly overcame the inhibitory effect of ceritinib
[2]
  inhibition at 0.3 µM: 20%
[3]
  inhibition at 0.3 µM: 70%
[4]; MGH049, no ALK resistance mutations
  sensitivity of cell line to ceritinib alone: resistant
[5]
  HER3 phosphorylation: induction of HER3 phosphorylation; also recorded: up-regulation of HER3 phosphorylation
[6]; ceritinib 8-day treatment
  AKT phosphorylation: profound rebound in AKT phosphorylation
[6]; ceritinib initial (4 hours) treatment
  AKT phosphorylation: initial inhibition of AKT phosphorylation
[7]
  cell growth inhibition as single agent (colony formation): less effective
[8]
  cell growth inhibition as single agent (colony formation): partially effective

## C#Cc1cccc(Nc2ncnc3cc(OCCOC)c(OCCOC)cc23)c1 [erlotinib, N-(3-ethynylphenyl)-6,7-bis-(2-methoxyethoxy)quinazolin-4-amine]
[6]
  rebound in AKT phosphorylation: able to suppress the rebound in AKT phosphorylation
[9]
  ERK phosphorylation: enhanced inhibition of ERK phosphorylation
[7]
  anti-proliferative effect in combination with ceritinib versus ceritinib alone (colony formation): greater anti-proliferative effect
  cell growth inhibition as single agent (colony formation): no effect on cell growth
[7]; listed as Erlotinib
  anti-proliferative effect in combination with ceritinib versus ceritinib alone (colony formation): enhances the anti-proliferation activity of ceritinib
[8]
  anti-proliferative effect in combination with ceritinib versus ceritinib alone (colony formation): greater anti-proliferative effect
  cell growth inhibition as single agent (colony formation): no effect on cell growth
[8]; listed as Erlotinib
  anti-proliferative effect in combination with ceritinib versus ceritinib alone (colony formation): enhances the anti-proliferation activity of ceritinib

## Cc1cc(C(=O)Nc2nc3cccc(Cl)c3n2[C@@H]2CCCCN(C(=O)/C=C/CN(C)C)C2)ccn1 [compound A, (R,E)-N-(7-chloro-1-(1-(4-(dimethylamino)but-2-enoyl)azepan-3-yl)-1H-benzo[d]imidazol-2-yl)-2-methylisonicotinamide]
[4]; in combination with 0.5 μM ceritinib, 6 days, MGH049 (FIG. 3)
  cell growth, EGFR inhibitor in combination with ceritinib: synergistically reduced cell growth
[10]; in combination with 0.5 μM ceritinib, 6 days, MGH051 (FIG. 4)
  cell growth, EGFR inhibitor in combination with ceritinib: synergistically reduced cell growth

## CN(C)C/C=C/C(=O)Nc1cc2c(Nc3ccc(F)c(Cl)c3)ncnc2cc1O[C@H]1CCOC1 [afatinib, (S,E)-N-(4-((3-chloro-4-fluorophenyl)amino)-7-((tetrahydrofuran-3-yl)oxy)quinazolin-6-yl)-4-(dimethylamino)but-2-enamide]
[6]
  rebound in AKT phosphorylation: able to suppress the rebound in AKT phosphorylation
[9]
  ERK phosphorylation: enhanced inhibition of ERK phosphorylation

## Antibody A: anti-HER3 antibody comprising the sequences of MOR10703 as defined in Table 1
[11]
  activation of HER3: markedly suppressed
[6]
  rebound in AKT phosphorylation: markedly suppressed
[12]; LDK378 25 or 50 mg/kg po qd × 32 + cetuximab 20 mg/kg ip biwk × 5 or Ab A 25 mg/kg ip qod × 17 (FIGS. 8A, 8B)
  efficacy (tumor volume) of LDK378 in combination with the antibody: significantly improved efficacy of LDK378
[12]; ceritinib + Antibody A + cetuximab
  efficacy of ceritinib with Antibody A and cetuximab combined (triple combination): significantly improve the efficacy of ceritinib

## CS(=O)(=O)CCNCc1ccc(-c2ccc3ncnc(Nc4ccc(OCc5cccc(F)c5)c(Cl)c4)c3c2)o1 [lapatinib, N-[3-chloro-4-(3-fluorobenzyloxy)phenyl]-6-{5-[4-(methylsulfonyl)-2-azabutyl]-2-furyl} quinazolin-4-amine]
[4]
  cell growth, EGFR inhibitor in combination with ceritinib: synergistically reduced cell growth
[10]
  cell growth, EGFR inhibitor in combination with ceritinib: synergistically reduced cell growth
